# Source: patent publication US8324188B2, “Combinations of ET-18-O-CH3and anti-cancer agents for the treatment of cancer” (priority 2006, dated 2012)
# What was measured:
# T98G = assay: WST-1 proliferation assay, T98G; format: cell-based; conditions: Homo sapiens
# Protocol: (§1) AP-121 was prepared as 5 mM stock solution in distilled sterile water, Temozolomide (TMZ) (Haorui Pharma-Chem, Inc., Edison, N.J.) was prepared as 100 mM in sterile filtrated DMSO; Adriamycin (ADR) (Sigma) was prepared as 1 mM in distilled sterile water; Camptothecin (CTP) (Sigma) was prepared as 10 mM solution in 0.1 N NaOH; Tarceva (Proteinkinase, Germany) was prepared as 5 mM solution in sterile DMSO. All compound stocks were kept at −20° C. 2000 cells were plated in each well of 96-well flat bottom plates, and incubated overnight at 37 °C in 5% CO2. The growth of plated cells was measured by adding […] of WST-1 reagent (Roche Applied Sciences, Germany) to 3 control wells and measuring the absorbance at 650 nm and at 450 nm, respectively, with a SpectraMax250 plate reader. […] After this incubation, VVST-1 reagent was added to the wells and OD650-OD450 values were calculated as before. six wells were assayed for each conditions and standard deviation was determined: all experiments were performed at least three times independently. […] Six different concentrations of each drug were used in combinations index measurements and compared to +/− cells, and compared to controls without compound.
# U118MG = assay: WST-1 proliferation assay, U118MG; format: cell-based, human
# Protocol: as §1, with “compound. Each combination was repeated 6 times at 2 different time points (24 and 96 hours), each of the above experiments was repeated 3 times to obtain valid results.” for “compound.”
# [1] = system: LNCaP androgen-sensitive human prostate adenocarcinoma cells; assay: trypan blue dye exclusion, living LNCaP cells; format: cell-based
# Protocol: FIG. 1. Depicts the in vitro effects of 1-O-octadecyl-2-O-methyl-glycero-3-phosphocholine (final concentration 10 μM), (ionizing) radiation (absorbed dose of 5 Gray units; indicated as “RT”), and a combination thereof on programmed cell death (apoptosis) and the survival rate of LNCaP androgen-sensitive human prostate adenocarcinoma cells. Apoptosis was determined using the Apo-ONE™ Homogenous Caspase-317 Assay, Promega, Inc., Madison, Wis., USA according to the manufacturers instructions. The percentage of living cancer cells was estimated by means of trypan blue dye exclusion as described (Freshney, R. I. (1994) Culture of Animal Cells: A Manual of Basic Technique. 3rd Ed. Wiley-Liss. New York. USA). The cells were exposed to radiation six hours after (FIG. 1A), concomitantly with (FIG. 1B), or six hours before administration of 1-O-octadecyl-2-O-methyl-glycero-3-phospho-choline (FIG. 1C). The caspase assay was performed 12 hours after exposure to radiation. The respective data shown represent the average of two independent experiments.
# First, the in vitro effects of 1-O-octadecyl-2-O-methyl-glycero-3-phosphocholine, (ionizing) radiation, and a combination thereof on programmed cell death (apoptosis) and the survival rate of LNCaP androgen-sensitive human prostate adenocarcinoma cells were measured. The LNCaP cell line was established from a metastatic lesion of the adenocarcinoma. The cells were treated with a final concentration of 10 μM 1-O-octadecyl-2-O-methyl-glycero-3-phosphocholine and (ionizing) radiation corresponding to an absorbed dose of 5 Gray units.
# Apoptosis was determined using the Apo-ONE™ Homogenous Caspase-3/7 Assay, Promega, Inc., Madison, VV1, USA according to the manufacturers instructions. The percentage of living tumor cells was estimated by means of trypan blue dye exclusion as described (Freshney, R. I. (1994) Culture of Animal Cells: A Manual of Basic Technique. 3rd Ed. Wiley-Liss. New York. USA)
# The cells were exposed to radiation six hours after (FIG. 1A), concomitantly with (FIG. 1B), or six hours before administration of 1-O-octadecyl-2-O-methyl-glycero-3-phospho-choline (FIG. 1C). The caspase assay was performed 12 hours after exposure to radiation. The respective data shown represent the average of two independent experiments.
# LN-229 = assay: WST-1 proliferation assay, LN-229; format: cell-based; conditions: Homo sapiens
# Protocol: 2000 cells were plated in each well of 96-well flat bottom plates, and incubated overnight at 37 °C in 5% CO2. The growth of plated cells was measured by adding […] of WST-1 reagent (Roche Applied Sciences, Germany) to 3 control wells and measuring the absorbance at 650 nm and at 450 nm, respectively, with a SpectraMax250 plate reader. If the OD650-OD450 values were above 0.5, the remainder of the plate was used for incubation with AP-121, other pharmacological agents or solvent control for 96 hours.
# After this incubation, VVST-1 reagent was added to the wells and OD650-OD450 values were calculated as before. six wells were assayed for each conditions and standard deviation was determined: all experiments were performed at least three times independently. After elucidation of individual IC50 values for each compound, the simultaneous combination treatment of AP-121 and the chemotherapeutic agent at their IC50 ratio was performed; combination index (CI) was determined by Calcusyn software package (Biosoft, Ferguson, Mo.). Data were evaluated by calculating the means of the combination index (CI), where a CI of <0.3 indicates a strong synergistic effect, 0.3<CI<0.7 a synergistic effect, 0.7<CI<0.9 moderate synergy, 0.9<CI<1 additive effect and CI>1 antagonistic effect, respectively.
# For the AP-121 cell proliferation drug combination measurements, the ED50 was determined for each drug. Six different concentrations of each drug were used in combinations index measurements and compared to +/− cells, and compared to controls without compound. Each combination was repeated 6 times at 2 different time points (24 and 96 hours), each of the above experiments was repeated 3 times to obtain valid results.
smiles,measurement,setting,value
"CCCCCCCCCCCCCCCCCCOCC(COP(=O)([O-])OCC[N+](C)(C)C)OC (racemic) [AP-121, 1-O-octadecyl-2-O-methyl-glycero-3-phosphocholine]",IC50,T98G,4.1 µM
same,IC50,"U118MG; Homo sapiens, U-118-MG",3.6 µM
same,EC50,"U118MG; Homo sapiens, U-118-MG, single agent or compound mixture as labelled (arrays A2, A1), read-out: ED50 (the source's name)",4.8 µM
same,"normalized ED50 (arrays B2, B1)",U118MG; ratio to the largest value,0.71
same,survival of the cells,"[1]; 10 μM administered six hours after radiation (5 Gray), combined treatment (FIG. 1C)",about 40%
same,survival of the tumor cells,"[1]; 10 μM administered six hours prior to radiation (5 Gray), combined treatment, untreated controls about 85% (FIG. 1A)",about 45%
same,survival rate,"[1]; 10 μM concomitant with radiation (5 Gray), untreated controls about 86% (FIG. 1B)",about 55%
same,survival rate,"[1]; 10 μM, individual chemical treatment (FIG. 1B)",about 50%
same,survival rate,"[1]; 10 μM, individual chemical treatment (FIG. 1C)",about 45%
same,survival rate,"[1]; 10 μM, individual treatment without radiation (FIG. 1A)",about 60%
same,IC50,LN-229,4.3 µM
